Experimental data from patent publication US20090117074A1, “Sulfonylpyrroles as Histone Deacetylase Inhibitors” (NYCOMED GmbH, priority 2005, published 2009).
Counter-ions that a name gives are not always drawn.

Key:
A549 cells = assay: Apoptosis induction (cell death detection ELISA); type: cell-based, human; settings: 10 μM, 48 hours
Protocol: The induction of apoptosis is measured by using the cell death detection ELISA (Art. No. 1774425, Roche Biochemicals, Mannheim, Germany). A549 NSCLC cells are seeded into 96 well flat bottom plates at a density of 3×10 E3 cells/well in a total volume of 200 μl/well. 24 hours after seeding, 1 μl each of the compound dilutions in DMEM are added in a total volume of 200 μl into each well (final volume 200 μl/well). Each compound dilution is tested at least as triplicates. Wells containing untreated control cells are filled with 200 μl DMEM containing 0.5 vol % DMSO. The cells are incubated with test compound for 48 hours at 37° C. in a humidified atmosphere containing 5% carbon dioxide. As a positive control for the induction of apoptosis, cells are treated with 50 μM Cisplatin (Gry Pharmaceuticals, Kirchzarten, Germany). Medium is then removed and the cells lysed in 200 μl lysis buffer. After centrifugation as described by the manufacturer, 10 μl of cell lysate is processed as described in the protocol. The degree of apoptosis is calculated as follows: The absorbance at 405 nm obtained with lysates from cells treated with 50 μM cisplatin is set as 100 cpu (cisplatin units), while an absorbance at 405 nm of 0.0 is set as 0.0 cpu. The degree of apoptosis is expressed as cpu in relation to the value of 100 cpu reached with the lysates obtained from cells treated with 50 μM cisplatin.

[1] = system: HeLa cervical carcinoma cell line; assay: Cellular cytotoxicity assay (Alamar Blue), HeLa; type: cell-based; settings: Homo sapiens, 48 or 72 hours, read-out: IC50, anti-proliferative/cytotoxic activity
Protocol: (§1) The anti-proliferative activity of the histone deacetylase inhibitory compounds as described herein, Is evaluated with the HeLa cervical carcinoma cell line (ATCC CCL2) and A549 non-small cell lung cancer cell line (ATCC CCL185) using the Alamar Blue (Resazurin) cell viability assay (O'Brien et al. Eur J Biochem 267, 5421-5426, 2000). Resazurin is reduced to the fluorescent resorufin by cellular dehydrogenase activity, correlating with viable, proliferating cells. Test compounds are dissolved as 20 mM solutions in dimethylsulfoxide (DMSO) and subsequently diluted in semi-logarithmic steps. HeLa or A549 cells are seeded into 96 well flat bottom plates at a density of 1000 and 2000 cells per well, respectively, in a volume of 200 μl per well. 24 hours after seeding 1 μl each of the compound dilutions are added into each well of the 96 Well plate. Each compound dilution is tested as quadruplicates.
(§2) Wells containing untreated control cells are filled with 200 μl DMEM medium containing 0.5% v:v DMSO. The cells are then incubated with the substances for 48 or 72 hours at 37° C. in a humidified atmosphere containing 5% carbon dioxide. To determine the viability of the cells, 20 μl of an Resazurin solution (Sigma; 90 mg/I) were added. After 4 hours incubation at 37° C. the fluorescence is measured at an extinction of 544 nm and an emission of 590 nm. For the calculation of the cell viability the emission value from untreated cells is set as 100% viability and the emission rates of treated cells are set in relation to the values of untreated cells. Viabilities are expressed as % values. The corresponding IC50 values of the compounds for cytotoxic activity are determined from the concentration-effect curves by means of non-linear regression.

A549 NSCLC cell line = assay: Cellular cytotoxicity assay (Alamar Blue), A549; type: cell-based; settings: Homo sapiens, 48 or 72 hours, read-out: IC50, anti-proliferative/cytotoxic activity
Protocol: as §1, §2

[2] = system: histone H3 hyperacetylation in HeLa cells; assay: Cellular histone H3 hyperacetylation assay; type: cell-based; settings: Homo sapiens, 24 h incubation
Description: To assess the cellular efficacy of a histone deacetylase inhibitor in vitro, an assay is set up in black clear-bottom 96-well plates and optimized for use on the Cellomics “ArrayScan II” platform for a quantitative calculation of histone acetylation. The protocol uses a polyclonal rabbit antibody, specifically binding to acetylated lysine 23 or, alternatively, acetylated lysine 9+14 of human histone H3 on fixed cells with an Alexa Fluor 488 labeled goat anti rabbit-IgG used for counterstaining (modified from Braunger et al. AACR annual conference 2003, Abstract 4556).
5×10^3 HeLa cervical carcinoma cells/well (ATCC CCL-2) in 200 μl Dulbecco's modified Eagle's medium (DMEM) containing 10% fetal calf serum are seeded at day 1 in Packard view plates and incubated for 24 h under standard cell culture conditions. On day 2, 1 μl test compound (200× final concentration) is added and incubation continued for further 24 h. On day 3, the culture medium is discarded and attached cells fixed for 15 min at room temperature by addition of 100 μl fixation buffer (3.7% v:v formaldehyde in phosphate buffered saline/PBS). After discarding the fixation buffer and one wash with blocking solution (1% BSA, 0.3% Tween 20 in PBS), cells are permeabilized at room temperature by addition of 100 μl/well permeabilization buffer (30.8 mM NaCl, 0.54 mM Na2HPO4, 0.31 mM KH2PO4, 0.1% v:v Triton X-100) for 15 min at room temperature. After discarding the permeabilization buffer and washing twice with 100 μl/well blocking solution at room temperature, the 1st antibody (anti-K23 histone H3 antibody, Cell Signaling No. 9674 or, alternatively, anti-K9+14 histone H3 antibody, Calbiochem No. 382158) in blocking solution (50 μl/well) is added. After incubation for 1 h at room temperature, the wells are washed twice at room temperature with 100 μl/well blocking solution before addition of the 2nd antibody (goat-anti-rabbit Alexa Fluor 488; MoBiTec No. A-11008) in blocking solution (50 μl/well). After further incubation for 1 h at room temperature, wells are washed twice with 100 μl/well blocking solution at room temperature. Finally, 100 μl/well PBS are added and image analysis performed on the Cellomics “ArrayScan II” platform. For EC50 determination, the percentage of positive cells showing nuclear fluorescence is determined and EC50 calculation done from concentration-effect curves by means of non-linear regression. For calibration, a positive (reference HDAC inhibitors like SAHA or LBH589) and negative control is included.

Structure (SMILES)	melting point	Apoptosis induction (cisplatin units; 50 μM cisplatin = 100 cpu) (A549 cells)	IC50 [1]	IC50 (A549 NSCLC cell line)	EC50 [2]
Cc1nc(C)c(S(=O)(=O)n2ccc(C=CC(=O)NO)c2)s1 (as salt: HCl) [Example 11, (E)-3-[1-(2, Dimethyl-thiazole-5-sulfonyl)-1H-pyrrol-3-yl]-N-hydroxy-acrylamide]	181 to 182 °C	–	–	–	–
O=C(/C=C/c1ccn(S(=O)(=O)c2ccc3ccccc3c2)c1)NO [Example 1, (E)-N-Hydroxy-3-[1-(naphthalene-2-sulfonyl)-1H-pyrrol-3-yl]-acrylamide]	–	310 cpu	0.23 to 4.2 µM	0.313 to 6.2 µM	0.19 to 10 µM
Nc1ccccc1NC(=O)/C=C/c1ccn(S(=O)(=O)c2ccc3ccccc3c2)c1 [Example 2, (E)-N-(2-Amino-phenyl)-3-[1-(naphthalene-2-sulfonyl)-1H-pyrrol-3-yl]-acrylamide]	–	46 cpu	0.23 to 4.2 µM	0.313 to 6.2 µM	0.19 to 10 µM
O=C(/C=C/c1ccn(S(=O)(=O)c2cccnc2)c1)NO [Example 3, (E)-N-Hydroxy-3-[1-(pyridine-3-sulfonyl)-1H-pyrrol-3-yl]-acrylamide]	161.4 to 176.4 °C	–	0.23 to 4.2 µM	0.313 to 6.2 µM	–
O=C(/C=C/c1ccn(S(=O)(=O)c2ccc(N3CCOCC3)nc2)c1)NO [Example 4, (E)-N-Hydroxy-3-[1-(6-morpholin-4-yl-pyridine-3-sulfonyl)-1H-pyrrol-3-yl]-acrylamide]	–	–	0.23 to 4.2 µM	0.313 to 6.2 µM	0.19 to 10 µM
Cn1cc(S(=O)(=O)n2ccc(/C=C/C(=O)NO)c2)cn1 [Example 8, (E)-N-Hydroxy-3-[1-(1-methyl-1H-pyrazole-4-sulfonyl)-1H-pyrrol-3-yl]-acrylamide]	–	–	0.23 to 4.2 µM	0.313 to 6.2 µM	–
O=C(/C=C/c1ccn(S(=O)(=O)c2cc3ccccc3s2)c1)NO [Example 9, (E)-3-[1-(Benzo[b]thiophene-2-sulfonyl)-1H-pyrrol-3-yl]-N-hydroxy-acrylamide]	–	–	0.23 to 4.2 µM	0.313 to 6.2 µM	0.19 to 10 µM
O=C(/C=C/c1ccn(S(=O)(=O)c2ccc3ncsc3c2)c1)NO [Example 10, (E)-3-[1-(Benzothiazole-6-sulfonyl)-1H-pyrrol-3-yl]-N-hydroxy-acrylamide]	–	–	0.23 to 4.2 µM	0.313 to 6.2 µM	0.19 to 10 µM
Cc1nc(C)c(S(=O)(=O)n2ccc(C=CC(=O)NO)c2)s1 [Example 11, (E)-3-[1-(2, Dimethyl-thiazole-5-sulfonyl)-1H-pyrrol-3-yl]-N-hydroxy-acrylamide]	–	–	0.23 to 4.2 µM	0.313 to 6.2 µM	–
Cc1nc(S(=O)(=O)n2ccc(/C=C/C(=O)NO)c2)cn1C [Example 12, (E)-3-[1-(1,2-Dimethyl-1H-imidazole-4-sulfonyl)-1H-pyrrol-3-yl]-N-hydroxy-acrylamide]	190 to 194 °C	–	–	–	–
